Experimental data reported in patent publication US11401278B2, “Macrocyclic indole derivatives” (The Broad Institute, Inc., priority 2017, dated 2022).
Where a name gives a salt, the structure may show the parent alone.

Assays:
SNU-16 = experiment: Antiproliferation assay (Assay 7), SNU-16; assay type: cell-based; settings: CellTiter-Glo, 72 hours, median, read-out: Antiproli SNU-16 [M] median IC50
Protocol: (§1) Assessment of the Anti-Proliferative Effect of Compounds in Different Cell Lines
(§2) The impact of compounds on the proliferation of different cell lines was assessed using the CellTiter-Glo® Luminescent Cell Viability reagent from Promega (G7573).
(§3) In parallel, cells were plated in a reference (day 0) plate for time zero determination.
(§4) Rim wells were excluded. The cells were incubated for 72 hours in a humidified incubator at 37° C. The day 0 plate was measured by adding 30 μL/well of CTG solution (CellTiter-Glo® Luminescent Cell Viability reagent, Promega G7573) to time zero wells in the reference plate followed by a 10 minutes incubation and luminescence reading at 0.1 ms. using the PHERAstar FS microplate reader (BMG Labtech).
(§5) After 72 hours incubation, the treated plates were measured in the same way as the day 0 plate mentioned above.

SUDHL5 [1] = experiment: Induction of cytotoxicity (Assay 6), SUDHL5; settings: read-out: Cytotox SUDHL5 [M] (median) IC50, CellTiter-Glo, 5 hours, SUDHL5
MCL-1 = MCL-1 (Homo sapiens (Human), UniProt Q07820, K194A/K197A/R201A); experiment: Protein-protein interaction assay MCL-1/Noxa BH3 peptide (MCL-1 assay, TR-FRET); assay type: binding; settings: MBP-MCL-1 / Noxa BH3 peptide, median
Sequence of MCL-1 (Q07820 whole entry K194A/K197A/R201A, looked up): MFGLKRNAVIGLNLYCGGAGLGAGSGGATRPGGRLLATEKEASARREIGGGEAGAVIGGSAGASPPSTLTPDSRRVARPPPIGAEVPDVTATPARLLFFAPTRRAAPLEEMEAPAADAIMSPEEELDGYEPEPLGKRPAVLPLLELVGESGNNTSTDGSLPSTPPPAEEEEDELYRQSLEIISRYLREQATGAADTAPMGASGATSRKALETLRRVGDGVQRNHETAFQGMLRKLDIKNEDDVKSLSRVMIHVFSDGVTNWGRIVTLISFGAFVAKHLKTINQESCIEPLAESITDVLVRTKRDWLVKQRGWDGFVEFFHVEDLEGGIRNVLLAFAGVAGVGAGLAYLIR
Procedure, shortened: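 TR-FRET competition assay read at 665/620 nm, with a Noxa BH3 tracer peptide (1 nM) plus Eu-cryptate anti-MBP and XL665-streptavidin. Compounds (0.1 nM-20 μM, duplicates) were pre-equilibrated 10 min at 22° C with 1 nM MBP-MCL-1 (173-329) in Tris pH 7, NaCl, KF, DTT buffer, then incubated 1 h at 22° C and overnight at 4° C. IC50 came from 4-parameter regression.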

SUDHL5 [2] = experiment: Antiproliferation assay (Assay 7), SUDHL5; assay type: cell-based; settings: CellTiter-Glo, 72 hours, median, read-out: Antiproli SUDHL5 [M] (median) IC50
Procedure, shortened: (§6)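 Plate cells in treatment and day 0 reference plates; read day 0 plate with CellTiter-Glo after 10 min; incubate treated plates 72 h at 37° C; read them identically.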

HMC-1-8 = experiment: Antiproliferation assay (Assay 7), HMC-1-8; assay type: cell-based; settings: CellTiter-Glo, 72 hours, several values per example, read-out: Antiproli HMC-1-8 [M] IC50
Procedure, shortened: as §6

PA-1 = experiment: Antiproliferation assay (Assay 7), PA-1; assay type: cell-based; settings: CellTiter-Glo, 72 hours, median, read-out: Antiproli PA-1 [M] median IC50
Protocol: as §1, §2, §3, §4, §5

DM-S114 = experiment: Antiproliferation assay (Assay 7), DM-S114; assay type: cell-based; settings: CellTiter-Glo, 72 hours, median, read-out: Antiproli DM-S114 [M] median IC50
Protocol: as §1, §2, §3, §4, §5

SUDHL10 [3] = experiment: Induction of caspase-3/7 activity (Assay 4), SUDHL10; assay type: cell-based; settings: caspase-3/7 induction, 3 hours, median
Procedure, shortened: (§7)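 DLBCL cells were exposed to compounds for 3 hours at 37 °C, then caspase-3/7 activation was read with Caspase-Glo 3/7 reagent. After subtracting medium-only background, EC50s were derived with fixed C0=1 and the reference compound's maximal induction as plateau.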

SK-MEL-2 = experiment: Antiproliferation assay (Assay 7), SK-MEL-2; assay type: cell-based; settings: CellTiter-Glo, 72 hours, median, read-out: Antiproli SK-MEL-2 [M] median IC50
Protocol: as §1, §2, §3, §4, §5

SUDHL10 [4] = experiment: Induction of cytotoxicity (Assay 6), SUDHL10; settings: read-out: Cytotox SUDHL10 [M] (median) IC50, CellTiter-Glo, 5 hours, SUDHL10
A-431 = experiment: Antiproliferation assay (Assay 7), A-431; assay type: cell-based; settings: CellTiter-Glo, 72 hours, median, read-out: Antiproli A-431 [M] median IC50
Protocol: as §1, §2, §3, §4, §5

SUDHL5 [5] = experiment: Induction of caspase-3/7 activity (Assay 4), SUDHL5; assay type: cell-based; settings: caspase-3/7 induction, 3 hours, median
Procedure, shortened: as §7

CCc1c2c(nn1C)C(CCN1CCOCC1)N(C)S(=O)(=O)CCCn1c(C(=O)O)c(CCCOc3cccc4cc(F)ccc34)c3ccc(Cl)c-2c31 (single isomer, unassigned; enantiomer 1) [Example 75, 4-chloro-3-ethyl-7-{3-[(6-fluoronaphthalen-1-yl)oxy]propyl}-2,14-dimethyl-15-[2-(morpholin-4-yl)ethyl]-13,13-dioxo-10,11,12,13,14,15-hexahydro-2H-13lambda^6-pyrazolo[3′,4′:4,5][1,2,8]thiadiazacycloundecino[6,7,8-hi]indole-8-carboxylic acid-N-ethylethanamine Salt (Enantiomer 1)]
IC50 (SNU-16): 1.26e-07 M
IC50 (SUDHL5 [1]): 1.6e-05 M
IC50 (MCL-1): 150 nM
IC50 (SUDHL5 [2]): 1.4e-05 M
IC50 (HMC-1-8): > 3.3e-05 M
IC50 (PA-1): 3.2e-08 M
IC50 (DM-S114): 3.66e-08 M
EC50 (SUDHL10 [3]): 35000 nM
IC50 (SK-MEL-2): 4.64e-07 M
IC50 (SUDHL10 [4]): 1.6e-05 M
IC50 (A-431): 3.24e-07 M
EC50 (SUDHL5 [5]): 11000 nM
